Source: patent US10548935B2, “Composition and method for preventing, reducing, alleviating or treating idiopathic vomiting” (Mars, Incorporated, priority 2013, dated 2020)
Where a name gives a salt, the structure may show the parent alone.

Tests used:
h5HT3A receptor = target: T1, h5HT3A receptor (Homo sapiens, UniProt P46098); experiment: Assays for screening 5-HT3a receptor inhibitors (FLIPR calcium assay or aequorin-assisted serotonin receptor assay; dosage response curves); assay type: cell-based
T1 construct: expressed in transfected cells
T1 sequence (P46098 24-478): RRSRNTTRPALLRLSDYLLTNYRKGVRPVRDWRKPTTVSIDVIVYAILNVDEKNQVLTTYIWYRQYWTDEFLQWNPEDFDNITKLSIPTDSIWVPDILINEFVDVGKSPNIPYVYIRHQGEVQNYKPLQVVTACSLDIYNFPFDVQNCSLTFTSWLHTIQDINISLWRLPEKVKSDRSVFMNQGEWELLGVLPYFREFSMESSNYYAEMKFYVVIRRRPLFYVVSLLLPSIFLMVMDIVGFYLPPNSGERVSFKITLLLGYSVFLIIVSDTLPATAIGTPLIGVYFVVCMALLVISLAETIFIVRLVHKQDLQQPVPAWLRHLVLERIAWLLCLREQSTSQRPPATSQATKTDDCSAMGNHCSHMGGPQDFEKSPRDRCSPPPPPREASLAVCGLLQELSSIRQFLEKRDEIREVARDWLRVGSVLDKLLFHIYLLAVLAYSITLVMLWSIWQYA
From the text: Various known high through-put screening assays can be used to determine the inhibitory effects of a material on the 5-HT3a receptors.
Due to activation of 5HT3 receptor following calcium and sodium influx and the subsequent rapid intracellular calcium and sodium increase, a calcium indicator (e.g., Fluo-4 AM) or a sodium dye can therefore be readily used to detect influx Ca^+2 or Na^+ signal using the Flourometric Imaging Plate Reader (FLIPR) assay to identify agonists or antagonists of 5-HT3a receptors.
The 5-HT3a FLIPR assay can specifically be conducted by the following steps. First, […] (human embryonic kidney) cells stably expressed with h5HT3A receptor are grown in 16-18 ml growth medium in a 75 cm^2 flask for 2-3 days at 37° C. in a mammalian cell culture incubator with 5% CO2 and 90% humidity. The growth medium may contain, for example, DMEM/F12 (1:1, Invitrogen 11039) supplemented with 10% FBS (fetal bovine serum), 100 μg/ml Antibiotic/Antimycotic, and 150 ug/ml G418. The cell medium is then transferred to a 50 ml tube, and the cells are washed with 10 ml PBS. Subsequently, 2 ml of 0.05% Trypsin-EDTA is added to detach cells, and the above cell medium is added back to flask to inactivate trypsin. Next, the cells are transferred back to the above 50 ml tube, which is centrifuged at 850 rpm for 3 minutes to remove medium. The cells obtained from centrifugation are then re-suspended with growth medium at 1-1.5 ml per flask cells. One vial of Fluo-4 AM (calcium indicator, 50 ug) is subsequently dissolved with 20 ul of Pluronic F-127, and 10 ul of Fluo-4 AM solution per flask cells is added (1 vial of Fluo-4 AM solution, 20 ul, is good for 2 flask of cells). The cells are then stained with Fluo-4 AM for 30 min at room temperature with gently shaking on a shaker, followed by addition of 45 ml of the assay buffer [HBSS with CaCl2 and MgCl2 (Invitrogen 14025), 20 mM HEPES, pH7.2] to wash cells once. Centrifugation is carried out once more at 850 rpm for 3 minutes to remove assay buffer. The resulting cell pellet is again re-suspended in Assay buffer (per flask cells with 18-20 ml assay buffer). Ninety microliters of cells (50K cells/well) is loaded in the 96-well plates that are pre-loaded with the compounds to be tested (10 ul of 1 mM test materials, the final concentration of the test materials will be 100 uM). The plates are placed at room temperature for 15-30 min in dark and then transferred to FLIPR-384 instrument (Molecular Devices). […] The calcium signal of the test plates is finally recorded by the FLIPR program. The average and standard deviations are calculated using Excel, and the background (buffer) is subtracted. The percentage (%) inhibition is then calculated as
[formula] A test material will be considered as having an inhibitory effect against the 5-HT3a receptor if the percentage inhibition calculated is greater than 40%.
Aequorin is a photo-protein originating from the Jellyfish Aequorea Victoria. It is initially translated as an apo-enzyme requiring the hydrophobic group coelenterazine to initiate the conversion to aequorin. Upon binding of calcium, the coelenterazine is oxidized by aequorin into coelenteramide (BFP) resulting in the emission of blue light and CO2. Therefore, it is particularly useful for visualizing or detecting influx Ca^+2 signal.
After 18-24 h of culture, the cells are detached gently by flushing with their cell culture medium. Washing with an additional 10 mLs of cell culture media will ensure that optimum number of cells is captured. The cells are then centrifuged at 150×g, counted and re-suspended at 1×10^6 cells/mL in BSA medium [DMEM/Ham's F12 (with 15 mM HEPES, L-glutamine, without phenol red) culture medium (Invitrogen, Cat. No. 11039-021)+10% protease-free BSA (Sigma Aldrich, Cat. No. A9205) in H2O with a final BSA concentration of 0.1%] in a Falcon tube. Coelenterazine is added at a final concentration of 5 μM in assay medium.

NK-1 receptor = target: T2, NK-1 receptor (Homo sapiens, UniProt P25103); experiment: Tango GPCR cell-based assay, TACR1-bla U2OS cells, NK-1 receptor inhibitors; conditions: 1 nM SAR9 Substance P agonist
T2 construct: host or cells: U2OS (Tango TACR1-bla)
Method: Various known high through-put screening assays can also be used to determine the inhibitory effects of a material on the NK-1 receptors.
One exemplary assay is the Tango™ G-Protein Coupled Receptors (GPCR) cell-based assays by Invitrogen. First, TACR1-bla U2OS cells (from Invitrogen) are cultured in McCoy's medium. The cultured cells are then plated in DMEM into 96-well plates (15,125 cells/well in 90 uL/well). After 16-24 hours, the cells are treated with test materials or positive control antagonist (which is 100 nM Aprepitant) and then incubated for 30-60 minutes at 37° C. in 5% CO2. Subsequently, the cells are treated with 1 nM SAR9 Substance P agonist and incubated again for 5 hours at 37° C. in 5% CO2. The plates are removed from the incubator and equilibrated at room temperature for 15 minutes. During the equilibration step, the LiveBlazer substrate detection solution (from Invitrogen) is prepared. Six times of substrate mixture is added to each well, followed by incubating the plates in the dark at room temp for 2 hours. The plates are read by the Envision microplate reader in 2 channels using the “Geneblazer 451” protocol, which include a blue channel (Excitement at 405 and Emission at 460) and a green channel (Excitement at 405 and Emission at 535).
FIGS. 45-70 show the NK-1 dosage response curves of compounds described hereinabove with high NK-1 inhibitory effect.

T2 sequence (P25103 whole entry): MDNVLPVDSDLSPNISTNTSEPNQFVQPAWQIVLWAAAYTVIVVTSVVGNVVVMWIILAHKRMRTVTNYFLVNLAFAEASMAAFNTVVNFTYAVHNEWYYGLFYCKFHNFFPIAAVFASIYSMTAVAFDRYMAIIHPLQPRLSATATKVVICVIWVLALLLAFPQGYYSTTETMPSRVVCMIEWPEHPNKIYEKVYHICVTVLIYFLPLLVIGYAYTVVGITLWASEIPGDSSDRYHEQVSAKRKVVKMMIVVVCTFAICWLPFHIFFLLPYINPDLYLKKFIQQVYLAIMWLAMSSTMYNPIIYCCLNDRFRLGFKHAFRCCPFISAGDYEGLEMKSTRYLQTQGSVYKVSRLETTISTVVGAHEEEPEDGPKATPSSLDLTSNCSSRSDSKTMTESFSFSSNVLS

| 5-HT3a receptor inhibitory effect (h5HT3A receptor) | NK-1 receptor inhibitory effect (NK-1 receptor) | Compound | cell toxicity (Cell toxicity) |
| --- | --- | --- | --- |
| surprisingly high | – | CCCCOC(=O)CC(O)(CC(=O)OCCCC)C(=O)OCCCC [Tributyl citrate] | little or no |
| – | surprisingly high | CC/C=C\CC/C=C/CO [Trans-2,cis-6-nonadienol] | little or no |
| surprisingly high | – | Cc1cc2nc3c(=O)[nH]c(=O)nc-3n(C[C@H](O)[C@H](O)[C@H](O)CO)c2cc1C [Riboflavin VB2, Riboflavin] | – |
| surprisingly high | – | CC(C)=CCC[C@](C)(O)C1CC=C(C)CC1 (stereo partly shown) [Bisabolol] | little or no |
| surprisingly high | – | OCCCCCCCCCCCCCCO [1,14-Tetradecanediol] | little or no |
| – | surprisingly high | O=C(/C=C/c1ccccc1O)c1ccc(O)cc1O [2,2′,4′-trihydroxy-chalcone] | little or no |
| – | surprisingly high | O=c1cc(-c2ccc(O)cc2)oc2cc(O)cc(O)c12 [Apigenin] | little or no |
| surprisingly high | – | CCCCCC1C(=O)CCC1CC(=O)OC (stereo not shown) [Methyl dihydrojasmonate] | little or no |
| surprisingly high | – | O=c1cc(-c2ccccc2)oc2ccccc12 [Flavone] | little or no |
| – | – | O=C(/C=C/C=C/c1ccc2c(c1)OCO2)N1CCCCC1 [Piperine] | little or no |
| – | surprisingly high | COc1ccc(/C=C/C=O)cc1 [Trans-4-methoxycinnamaldehyde] | little or no |
| surprisingly high | – | CCOc1ccc2c(c1)C(C)=CC(C)(C)N2 [Ethoxyquin] | little or no |
| surprisingly high | – | CCCCCCCCC1CCC(=O)O1 (stereo not shown) [Gamma-dodecalactone] | little or no |
| surprisingly high | – | Cc1c(O)ccc(O)c1C [2,3-dimethyl-1,4-benzenediol] | little or no |
| surprisingly high | – | c1ccc(CCCc2ccccn2)cc1 [Cortex pyridine, 2-(3-phenylpropyl)pyridine] | little or no |
| surprisingly high | – | CCCCCCCC1CC(C)OC1=O (stereo not shown) [3-heptyldihydro-5-methyl-2(3H)-furanone] | little or no |
| surprisingly high | – | CCCCCCCCCC1CCCC(=O)O1 (stereo not shown) [Delta-tetradecalactone] | little or no |
| surprisingly high | – | C=C(C)[C@@H]1CCC2=CC(=O)C[C@@H](C)[C@]2(C)C1 [Nootkatone] | little or no |
| surprisingly high | – | CCCCCCCCCCC/C=C\CCCCC(=O)O [Petroselinic acid] | little or no |
| – | – | CC/C=C\C/C=C\C/C=C\C/C=C\C/C=C\CCCC(=O)O [Eicosapentaenoic acid] | little or no |
| surprisingly high | – | COc1ccc(-c2coc3cc(O)cc(O)c3c2=O)cc1 [Biochanin A] | little or no |
| surprisingly high | – | CCCOC(=O)c1ccc(O)cc1 [N-propyl-4-hydroxybenzoate] | – |
| surprisingly high | – | CCCCCC(=Cc1ccccc1)CO [Alpha-amylcinnamyl alcohol] | little or no |
| surprisingly high | – | CCCCOCc1ccc(O)c(OC)c1 [Vanillyl butyl ether] | little or no |
| surprisingly high | – | CCCCCCCC1CCCC(=O)O1 (stereo not shown) [Delta-dodecalactone] | little or no |
| surprisingly high | – | Vetiverol | little or no |
| surprisingly high | – | CC(=O)/C=C/C1C(C)=CCCC1(C)C (stereo not drawn) [Alpha-lonone] | little or no |
| – | – | CC1=C(CCC(=O)O)c2cc3[nH]c(cc4nc(cc5[nH]c(cc1n2)c(C)c5C(C)O)C(C)=C4C(C)O)c(C)c3CCC(=O)O (stereo not shown) [Hematoporphyrin dihydrochloride] | little or no |
| surprisingly high | – | CCCCCC/C=C\CCCCCCCC(=O)O [Palmitoleic acid] | little or no |

| Compound | 5-HT3a receptor inhibitory effect (h5HT3A receptor) | NK-1 receptor inhibitory effect (NK-1 receptor) | cell toxicity (Cell toxicity) |
| --- | --- | --- | --- |
| CC(C)[C@@H]1CC[C@@H](C)C[C@H]1OCC(O)CO (stereo partly shown) [Menthoxypropanediol] | surprisingly high | – | – |
| C=C1CC[C@H](O)C/C1=C/C=C1\CCC[C@]2(C)[C@@H]([C@H](C)CCCC(C)C)CC[C@@H]12 [Cholecalciferol VD3, Cholecalciferol] | surprisingly high | – | – |
| CCCCCCCCC(=O)NCc1ccc(O)c(OC)c1 [Nonivamide] | surprisingly high | – | little or no |
| CC(C)=CCCC(C)=CCCC(C)=CC=O [Farnesal] | surprisingly high | – | little or no |
| O=C(CCc1ccc(O)cc1)c1c(O)cc(O)cc1O [Phloretin] | surprisingly high | – | little or no |
| CC(=O)C=Cc1ccccc1 [Benzylidenacetone] | – | surprisingly high | – |
| C[C@@H]1CC[C@H]2C(C)(C)[C@H]3C[C@@]12CC[C@@]3(C)O [(+)-cedrol] | surprisingly high | – | little or no |
